The results in this text go back to patent EP0390654B1, “Aminobenzenesulfonic acid derivative” (Mitsubishi Chemical Corporation, priority 1989, dated 1990).

Structures are written as SMILES.

By LD50 is commonly meant the dose at which mortality reaches 50%. Read a high LD50 as a less toxic substance.

For series [1], the system named is Papillary muscle of right ventricle. As to the kind of experiment: Inhibition of the cardiotonic activity of isoproterenol (developed tension) in isolated papillary muscle, as index of inhibiting Ca²⁺ overload into cells. The conditions noted are these: Drug concentration 10⁻³ M; inhibition of developed tension increased by isoproterenol. Further details: species or system male Hartley-strain guinea-pigs. The procedure: For evaluation of the extent of inhibiting Ca²⁺ overload into cells, which is the pharmacological activity of the compound of the present invention, inhibition of the cardiotonic activity of isoproterenol by the compounds of the present invention was measured.
That is to say, since isoproterenol has been known to cause Ca²⁺ overload by excessive Ca²⁺ influx into cardiac muscle cells (Fleckenstein A., Janke J., Doring H., Leder O.; Recent advances in Studies on cardiac structure and metabolism, Myocardial Biology, Vol. 4, pp. 563 - 580 (1974)), the compound which inhibits the activity of isoproterenol can inhibit Ca²⁺ overload into cells.
Papillary muscle of right ventricle isolated from male Hartley-strain guinea-pigs (body weight: 250 to 350 g) was suspended in an organ bath filled with a nutrient solution (Krebs-Henseleit solution). The temperature of the nutrient solution was maintained at 32 °C, and a gas mixture of 95 % oxygen and 5 % carbon dioxide was aerated. The papillary muscle was applied with a resting tension of about 0.5 g, and stimulated with platinum electrodes by an electric pulse wave of a duration of 1 msec, a frequency of 1 Hz and a voltage higher by 15 % than the threshold value. The developed tension of the papillary muscle was measured through a tension transducer and recorded with a polygraph. After the specimen was stabilized for about 90 minutes, isoproterenol ([…]) was added into the organ bath so that developed tension could be increased by 100 % or more, and at the point when the maximum reaction was obtained, the compounds of the present invention were added into the organ bath, and % inhibition of the developed tension increased by isoproterenol was measured.

For series [2], the system named is isolated heart of rat. The experiment in a line: Protective effect on ischemic myocardium, Langendorff-perfused isolated heart (ischemia 90 minutes, then reperfusion). Further details: species or system Male Wister rats. The conditions noted are these: for Developed tension (%): % of value in equilibration period, 30 minutes after reperfusion, Control 32.5; for Rise in resting tension: just before reperfusion, Control 0.72. The protocol: For the evaluation of the protective effect of ischemic myocardium, two parameters (rise in resting tension and decrease in developed tension), indices of myocardial injury, were measured in the myocardial ischemic model using isolated heart of rat.
It is reported that drugs which have the protective effect on ischemic myocardium attenuates the rise in resting tension and decrease in developed tension induced by Ca²⁺ overload into myocardial cells when the heart is exposed to ischemia. (Araki, H. & Lefer, AM.: Role of prostacyclin in the preservation of ischemic myocardial tissue in the perfused cat heart. Circ. Res., 47: 757-763, 1980).
Male Wister rats (250-350 g) were killed and their hearts excised. The hearts were then arranged for coronary perfusion with Krebs-Henseleit solution (37 °C, aerated with a gas mixture of 95 % O₂ - 5 % CO₂) according to the method of Langendorff. Tension development was monitored with a force displacement transducer attached via a cotton ligature to the ventricular apex with a resting tension of 1.5 g. After a equilibration period of 1 hour, myocardial ischemia was induced by lowering perfusion pressure from 80 cm H₂O to 12 cm H₂O for 90 minutes. The heart was then reperfused with the previous perfusion pressure of 80 cm H₂O. Rise in resting tension (g) just before reperfusion and developed tension (%) (% of value in equilibration period) 30 minutes after reperfusion were measured.

The nature of series [3]: Acute toxicity, 50 % lethal dose (LD₅₀). The conditions noted are these: mouse, in vivo, male mice. The procedure: Among compounds of the present invention, the compound No. 110 was tested for its acute toxicity.
Compound No. 110 was administered to male mice (18 - 25 g) for determination of 50 % lethal dose (LD₅₀). Two routes of administration tested were as follows: • 1) intravenous (into tail vein) administration in which calculation of LD₅₀ was according to up and down method and • 2) oral administration in which calculation of LD₅₀ was according to probit method. Compound No. 110 was diluted in physiological salt solution (0.9 % sodium chloride) for intravenous administration and distilled water for oral administration.

For `Cc1ccc(N2CCNCC2)c(S(=O)(=O)O)c1` [Compound No. 12, 2-(1-piperazinyl)-5-methylbenzenesulfonic acid], the “Inhibition (%)” value in series [1] amounted to 18.5%. The same measure, in the same setting: to `CCCc1ccc(N2CCN(Cc3ccc(OC)c(OC)c3)CC2)c(S(=O)(=O)O)c1` [Compound No. 66] belongs 52.4%. On the same count and under the same terms, to `CCCc1ccc(N2CCN(Cc3ccc(OC)c(OC)c3OC)CC2)c(S(=O)(=O)O)c1` [Compound No. 69, 2-[4-(2,3,4-trimethoxybenzyl)-1-piperazinyl]-5-n-propylbenzenesulfonic acid] belongs 21.4%. As to `CCCc1ccc(N2CCNCC2)c(S(=O)(=O)O)c1.Cl` [Compound No. 110, 2-(1-piperazinyl)-5-n-propylbenzenesulfonic acid hydrochloride], the figures for the “Developed tension (%)” value in series [2] (Drug concentration 10⁻⁵ M), in series [2] (Drug concentration 10⁻⁶ M) and in series [2] (Drug concentration 10⁻⁷ M) were 77.0%, 65.4% and 32.2%, respectively. Moreover, the “Rise in resting tension” value in series [2] (Drug concentration 10⁻⁵ M) was found to be 0.09 g; in series [2] (Drug concentration 10⁻⁶ M), 0.33 g; in series [2] (Drug concentration 10⁻⁷ M) it was 0.48 g. Moreover, the LD50 in series [3] (Intravenous administration (tail vein), up and down method) worked out at 63 mg/kg; in series [3] (Oral administration, probit method) it was 2800 mg/kg. Turning to `CCCc1ccc(N2CCCN(C)CC2)c(S(=O)(=O)O)c1` [compound 89], in series [2] (Drug concentration 10⁻⁵ M), the “Developed tension (%)” value is on record as 58.4% and the “Rise in resting tension” value was found to be 0.25 g.

As to `O=S(=O)(O)c1cc(-c2ccccc2)ccc1N1CCNCC1` [compound 91], in series [1], the “Inhibition (%)” value is 17.2%.

For the compound `O=S(=O)(O)c1cc(Cl)ccc1N1CCNCC1` [compound 93], in series [1], the “Inhibition (%)” value stood at 28.0%. As to `O=S(=O)(O)c1cc(Br)ccc1N1CCNCC1` [compound 94], the “Inhibition (%)” value in series [1] came out at 18.5%. Same read-out and setting: with `CC(C)c1ccc(N2CCNCC2)c(S(=O)(=O)O)c1` [compound 111] the figure was 27.5%.
